The values that follow come from a melting point compilation (Tetko et al.; mined from patent text by program, amines drawn as free bases though some values may be those of a salt).

One may read the melting point as the temperature, or range, at which the solid turns liquid. Consider `NNC(=O)c1ccc(OCc2ccccc2)cn1`, for which the melting point lay in the range of 140 to 142 °C. For `CC1(C)CCC(C)(C)c2nc3c(ccc4c(-c5ccc(C(=O)O)cc5)cn(Cc5cccnc5)c43)nc21` the value was 286 to 288 °C; for `O=C(O)CCCCCCCCCCCc1ccccc1`, 47 to 48 °C. Under `Cc1ccc(CN2C(=O)c3cccc4cccc2c34)cc1` stands 108 to 110 °C; under `NC(=Nc1ccc2[nH]c3ccccc3c2c1)c1cccs1`, 243 to 244 °C.

Turning to `Cc1ccc(-c2c(C)c3cc(O)ccc3n2Cc2ccc(OCCN3CCCCC3)cc2)cc1`, the melting point was 162 to 164 °C.

In the case of `Cc1cn(CC(Br)C(=O)N(C)C)nc1-c1ccccc1` (stereo not drawn), the melting point is 104 to 107 °C. Under `COc1cc(C(=O)c2c(C)c(OC)c3ccc(C(=O)O)cn23)ccc1[N+](=O)[O-]` stands 287 °C. For `Cn1ncc(C(=O)N2CCC2)c1C(=O)Nc1ccc2nc(-c3cccnc3)nn2c1` the value was 272 °C. `CCOC(=O)Cc1c(C(=O)OCC)[nH]c2ccc(F)cc12` yielded a melting point of 128 to 130 °C. Under `OC1CSC(Sc2ccccc2C(F)(F)F)C(O)C1O` (stereo not drawn) stands 114 to 115 °C.

For the molecule `COC(=O)C1(NC(=O)Cc2cc(-c3ccc(Cl)cc3)ccc2Cl)CCC(C)(C)CC1`, the melting point came out at 128 °C.

The molecule `COCCNS(=O)(=O)c1cc2[nH]c(=O)c(=O)[nH]c2cc1[N+](=O)[O-]` yielded a melting point of 320 to 321 °C. Under `O=C(NC1CCN(CC(O)c2ccccc2)CC1)c1ccccc1` (stereo not drawn) stands 178 to 180 °C; under `Cc1cc(C)c(C)c(COc2ccc(-c3ccoc3C(=O)NNC(=O)c3ccc(O)c(C#N)c3)cc2)c1C`, 183 to 186 °C. As to `Cc1cc(N(C)C)c2c(N)c(C(N)=O)sc2n1`, the melting point was in the range of 167 to 170 °C.

With `CC(C)CC(NC(=O)OCc1ccccc1)C(=O)NC(C#N)COCc1ccccc1` (stereo not drawn), the melting point lay in the range of 126 to 127 °C. Under `COc1ccc([N+](=O)[O-])c2c1C(=O)CCC2` stands 65 to 71 °C; under `Cc1cc(-n2c(=O)cc(C(F)(F)F)[nH]c2=O)c(F)cc1Br`, 186 °C; under `Cn1ccc(NC(=O)Nc2cccc3c2C2CCCCN2C3=O)n1` (stereo not drawn), 233 °C.

The molecule `Nc1ccc2[nH]c(-c3ccccc3)cc2c1` came in with a melting point of 220 °C. Under `COc1cc(C)nc(NC(=O)NS(=O)(=O)c2cccnc2Cl)n1` stands 165 to 168 °C; under `NC(=O)NC1CCN(Cc2ccc3ccccc3c2)CC1`, 183 to 185 °C. `COC(=O)[C@H](CSC)Nc1ncccc1[N+](=O)[O-]` showed a melting point of 95 to 97 °C. For `C=C1CCc2c(F)c(F)cc3c(=O)c(C(=O)O)cn1c23` the value was 220 to 232 °C; for `CC(C)(C)c1cc(C(C)(C)C)c(O)c(C(=O)Nc2ccc(S(=O)(=O)C(F)(F)F)cc2Cl)c1O`, 149 to 150 °C; for `CCOC(=O)C(C)(C)Oc1ccc(-c2ccc(CCNC(=O)c3ccc(OC)c(OC)c3)cc2)cc1`, 118 °C. For `Nc1cc(=O)n(Cc2ccc(F)cc2Cl)[nH]1` the value was 192 °C; for `O=c1c2c(N3CCNCC3)cc(Cl)cc2n(Cc2ccccc2)c(=O)n1Cc1ccccc1O`, 113 to 130 °C. Under `Cc1nn(C(C)C(=O)N(C)C)c(C)c1-c1ccccc1` (stereo not drawn) stands 122 to 124 °C. In turn, `Cc1cc2c(Cl)nc(N)nc2o1` had a melting point of 255 to 257 °C. For `COC(=O)C[C@H](O)CC(=O)C=Cc1c(-c2ccc(F)cc2)c(-c2ccccc2)c(C(=O)NCc2ccc(F)cc2)n1C(C)C` the value was 62 to 63 °C; for `CCOC(=O)COc1c(C=O)cccc1OC`, 75.1 to 76.2 °C.

The molecule `Cc1c(C(=O)c2cnn(C(C)(C)C)c2O)ccc(S(C)(=O)=O)c1I` showed a melting point of 171 to 172 °C. For `CCCCc1ncc(CO)c(NCc2ccc(-c3ccccc3)c(-c3nnnn3C(c3ccccc3)(c3ccccc3)c3ccccc3)c2)n1` the value was 126 to 129 °C; for `O=C1COC(C#Cc2ccccc2)(C(F)(F)F)c2cc(Cl)ccc2N1` (stereo not drawn), 190 to 191 °C. Under `CCc1noc(-c2cn(-c3ccc([N+](=O)[O-])cn3)cn2)n1` stands 228 to 229 °C.

Turning to `Cn1nc(C(F)F)c(C=O)c1F`, the melting point is 68 °C. Under `Fc1ccc(Cn2c(NC3CCN(CCNC(=S)NCc4cccnc4)CC3)nc3ccccc32)cc1` stands 147 °C; under `Cn1nc2ccccc2c1C(=O)NCC1CCN(CCc2ccc(F)cc2F)CC1`, 122 to 126 °C; under `CCOC(=O)Cc1c(C(=O)OCC)c(O)c(C(=O)c2ccc(Cl)cc2)n1C`, 145 to 147 °C. As to `CCN(CC)CCCCC1CCCCN1CCNC(=O)N1c2ccccc2C(=O)Nc2cccnc21` (stereo not drawn), the melting point was 155 to 157 °C. For `O=C(O)c1cccc(-c2ccc3c(c2)N(c2cc(Cl)cc(Cl)c2)CC3)c1` the value was 210 to 211 °C.

Take `CC1(C)C(=O)C(C)(C)c2cc3[nH]c(S(=O)Cc4ccccn4)nc3cc21` (stereo not drawn): the melting point was 201 to 203 °C. Under `COc1ccc(CC2C(=O)N(Cc3ccccc3)c3ccccc3N(C(=O)CN3C(=O)c4ccccc4C3=O)C2C)cc1` (stereo not drawn) stands 247 to 248 °C. For `NC(=O)c1nc(-c2ccncc2)nc2c1NC(=O)CN2c1ccccc1`, the melting point was in the range of 298 to 304 °C.

In turn, `CC(C)(C)c1ccc(O)c(C2=CCCCC2)c1` returned a melting point of 90 to 93 °C. Under `CCOC(=O)C(OCC)(OCC)C(=O)c1cccc2snnc12` stands 123 to 125 °C; under `CCOC(=O)C1C(=O)CC(C)(O)C(C(=O)OCC)C1c1cc(Br)c2oc(C)c(C)c2c1` (stereo not drawn), 194 to 195 °C; under `Cc1c(Cl)ccc(S(=O)(=O)Cl)c1Cl`, 75 °C.

With `CCOC(=O)COc1cc(-c2cc3nccnc3[nH]2)ccc1OC`, the melting point was in the range of 183 to 184 °C. For `O=[N+]([O-])c1cc(-c2cn3ncsc3n2)cc(O)c1O` the value was 278 to 280 °C; for `CCN(C(C)=O)c1cc([N+](=O)[O-])cc([N+](=O)[O-])c1`, 98 to 100 °C; for `CCn1cc(C(=O)O)c(=O)c2cc(F)c(N3CC(N)C3)nc21`, 260 to 262 °C. The molecule `COc1cccc(Cc2nnc(SC)[nH]c2=O)c1` showed a melting point of 185 to 186 °C. The molecule `OCC1CNC2Cc3c[nH]c4cccc(c34)C2(O)C1` (stereo not drawn) gave a melting point of 145 to 149 °C. Under `Cc1cc(C(N)=O)ncc1C(c1c(F)ccc(F)c1F)S(=O)(=O)CCC(F)(F)C(F)(F)F` (stereo not drawn) stands 155 to 156 °C; under `CS(=O)(=O)Nc1ccc(C(N)=O)cc1Oc1ccc(F)cc1F`, 147 to 150 °C; under `COc1cc(/C(C#N)=C/c2ccc(C)c([N+](=O)[O-])c2)cc(OC)c1OC`, 162 to 163 °C.

Turning to `Brc1cccc2c1ccc1ccccc12`, the melting point lay within 90 to 91 °C. Molecule `COc1nn(-c2cccc(N(C)C(C)=O)c2)c(=O)n(Cc2ccc(Cl)cc2)c1=O` displayed a melting point of 157 °C.

Molecule `CN(C)C(=O)[C@@H]1CS[C@@H](CS)C1` returned a melting point of 41.8 to 44.4 °C. Consider `O=C(O)CCCC=Cc1nn(-c2ccc(F)cc2)c2c1CCC2`, for which the melting point lay within 90 to 91 °C. For `CCCCCCCCCCCCc1ccc(S(=O)(=O)Nc2nnc(CC(=O)OCC)s2)cc1` the value was 108 to 109 °C; for `Nc1nc2c(ncn2OC(CO)CCOCP(=O)(O)O)c(=O)[nH]1` (stereo not drawn), 188 to 192 °C.

On to `COc1ccc(Nc2c([N+](=O)[O-])cc([N+](=O)[O-])c(Cl)c2C(=O)O)cc1`, for which the melting point is 241 to 245 °C.

Take `CC[C@@]12CCCN1[C@@H](C(Cl)(Cl)Cl)OC2=O`: the melting point lay in the range of 76 to 77 °C. Under `CC(C)n1c(=O)sc2cc([N+](=O)[O-])ccc21` stands 138 to 142 °C. Under `CC(=O)OC1CC(n2cc(C=CBr)c(=O)[nH]c2=O)OC1CC#N` (stereo not drawn) stands 96 °C; under `O=[N+]([O-])c1cnc(Sc2n[nH]c(-c3ccccc3)n2)s1`, 155 to 157 °C; under `COc1ccc(C(=O)NCCCCCCCCCCCNC(=O)c2ccc(OC)cc2)cc1`, 150 to 151 °C.

For the molecule `Fc1ccc(N2CCC(NCc3ccn4c(CC5CC5)nnc4c3C(F)(F)F)CC2)c(F)c1`, the melting point turned out to be 118 °C.

On to `COC(=O)C1=C(C)NN=C(C(=O)OC2CCCC2)C1c1ccccc1Cl` (stereo not drawn), for which the melting point was found to be 152 °C. Under `COCCCn1nnnc1-c1cc(-c2cc(C(C)C)ccc2OC)c(O)cc1O` stands 174 to 176 °C; under `CCc1nnc2c(NC(C)=O)nc3ccccc3n12`, 193 to 195 °C. Regarding `O=S(=O)(Nc1ccc2c(OCc3ccc(-c4ccc(Cl)cc4)cc3F)cccc2c1)C(F)(F)F`, the melting point was 151 to 153 °C. Take `COC1CC(C)(C)Cc2c1c(C)nn2-c1ccccn1` (stereo not drawn): the melting point lay within 66 to 68 °C. The molecule `Nc1c(Cl)cc(Cn2nc(-c3ccc(Cl)c(Cl)c3)oc2=O)c(O)c1Cl` yielded a melting point of 200 to 202 °C. For `Cn1nc(C(=O)NCc2ccc(Cl)cc2)c(=O)c2cc(CO)ccc21` the value was 203 to 205 °C. For `Clc1cccc(Cl)c1N=C1NCCN1OCc1ccccc1` the value was 115 to 117 °C; for `COCCOC(=O)NNC(=O)OCCOC`, 71.3 to 76.5 °C; for `CCCCCCCCCCCCOc1ccc(-c2cc3ccccc3[nH]2)cc1OC`, 104 °C. In turn, `O=C(Nc1ccccc1F)C1C(=O)Sc2ccccc21` (stereo not drawn) registered a melting point of 155 to 156 °C. For `CC(Oc1ccc(CNC(=O)c2cccnc2Oc2ccc3c(c2)OCO3)c(F)c1)C(=O)O` (stereo not drawn) the value was 136 to 138 °C.

`O=C(NCCF)c1ccc(CCN2CC=C(c3c[nH]c(-c4ccc(F)cc4)c3-c3ccncc3)CC2)cc1` showed a melting point of 209 to 211 °C. For `Clc1cccnc1-c1ccc2[nH]nc(Nc3cc[nH]n3)c2c1` the value was 218 to 220 °C. Under `CC(C)NCCOc1ccc(-c2nc3ccccc3c(=O)[nH]2)nc1-c1ccc(S(C)(=O)=O)cc1` stands 188 to 189 °C. The molecule `CSc1cn(CC(C)N(O)C(N)=O)c2ccccc12` (stereo not drawn) showed a melting point of 87 to 90 °C.
